Here are results for 15 compounds from patent US9180118B2, “Thiadiazolidinone derivatives” (University of Rochester, priority 2006, dated 2015).

The subject of data set [1] is normal specimens (BM, CB, MPB). The data set is described as follows: Viability of normal specimens (BM, CB, MPB), Annexin V/7-AAD. The data set is classed as cell-based, human. The note with it: normal specimens. How it is done: (§1) The cells were isolated and processed as described. […] All drug treatments were performed in triplicate. […] Total viable cell numbers were determined using a flow cytometric apoptosis assay as described. Briefly, after 18 h of treatment, specimens were labeled with anti-CD34-PE (Becton Dickinson, San Jose, Calif.) for 20 minutes. […] The total number of events collected was 100,000. The percent viable cells was defined as AnnexinV^neg/7-AAD^neg cells on total (ungated) cells and on gates set for CD34^+ populations. • [1] Jordan, C. T., et al., The interleukin-3 receptor alpha chain is a unique marker for human acute myelogenous leukemia stem cells. Leukemia, 2000. 14(10): p. […] Lansdorp, P. M. and W. Dragowska, Long-term erythropoiesis from constant numbers of CD34+ cells in serum-free cultures initiated with highly purified progenitor cells from human bone marrow. […] Guzman, M. L., et al., Nuclear factor-kappaB is constitutively activated in primitive human acute myelogenous leukemia cells. […] 98(8): p.

The test system of a further data set is primary AML specimens. Kind of data set: Viability of primary AML specimens, Annexin V/7-AAD flow cytometry. Format: cell-based, human. To be noted: for Rapid kinetics: cell death kinetics; for Cytotoxic AML: primary AML specimens. How it is done:
as §1
Background: Flow cytometry measures light scatter and fluorescence of single cells or particles in a stream.

[2] abbreviates: listed as 2-chloro-1-(4,5-dibromo-thiophen-2-yl-ethanone).
Setting [3] is: pre-treated 1 h prior to 20 μM TDZD-8, viability at 24 hours.

Where a SMILES comes first, the peptide text is derived from it. The star is where a group is joined. Cbz = O=C(OCc1ccccc1)*; CH2F = FC*

With `O=C1Cc2c([nH]c3ccc(Br)cc23)-c2ncccc2N1` [1-Azakenpaullone], in data set [1], the “Cytotoxic Normal” value is given as “No”. For the same compound, in the data set on primary AML specimens, the Rapid kinetics result is “No” and the “Cytotoxic AML” value was “No”.
Consider `O=c1sn(Cc2ccccc2)c(=S)n1Cc1ccccc1` [2,4-Dibenzyl-5-oxothiadiazolidine-3-thione], for which the “Cytotoxic Normal” value in data set [1] is “No”. Moreover, in the data set with primary AML specimens, the Rapid kinetics result is reported as “No” and the “Cytotoxic AML” value is listed as “No”.
Consider `O=C1CSC(=O)N1` [2,4-thiazolidinedione], for which the “Cytotoxic Normal” value in data set [1] is given as “No”. In the data set on primary AML specimens, the Rapid kinetics result was “No” and the “Cytotoxic AML” value is given as “No”.
As for `O=C(CCl)c1cc(Br)c(Br)s1` [2-Chloro-1-(4,5-dibromo-thiophen-2-yl)-ethanone], the entries for the “Cytotoxic Normal” value in data set [1] and in data set [1] (setting [2]) were “Yes” and “toxic to normal cells”, respectively. The Rapid kinetics entry with primary AML specimens is given as “No”. For the same compound, the results for the “Cytotoxic AML” value in the data set on primary AML specimens and in the data set on primary AML specimens (setting [2]) were “Yes” and “could induce AML cell death”, respectively.
In the case of `O=C1NC(=O)C(=Cc2ccc3c(c2)OC(F)(F)O3)S1` [5-(2,2-Difluoro-benzo[1,3]dioxol-5-ylmethylene)-thiazolidine-2,4-dione], the Rapid kinetics result with primary AML specimens was “No”.
Consider `Cc1cc(Nc2nc(-c3ccccc3)nc3ccccc23)n[nH]1` [(5-Methyl-1H-pyrazol-3-yl)-(2-phenylquinazolin-4-yl)amine], for which, in data set [1], the “Cytotoxic Normal” value is given as “No”. In the data set on primary AML specimens, the Rapid kinetics entry is given as “No” and the “Cytotoxic AML” value was “No”.
`CCOc1ccc(C=C2SC(=O)N(CCN)C2=O)cc1.Cl` [-(2-Aminoethyl)-5-((4-ethoxyphenyl)methylene)-2,4-thiazolidinedione, HCl]: the “Cytotoxic Normal” value in data set [1] is given as “No”. Further, in the data set with primary AML specimens, the Rapid kinetics entry was “No” and the “Cytotoxic AML” value is given as “No”.
For the compound `COc1ccc(CNC(=O)Nc2ncc([N+](=O)[O-])s2)cc1` [AR-A014418], the “Cytotoxic Normal” value in data set [1] is “No”. For the same compound, in the data set with primary AML specimens, the Rapid kinetics result is “No” and the “Cytotoxic AML” value is given as “No”.
For the compound `O=C1Nc2cc(Br)ccc2/C1=C1/Nc2ccccc2/C1=N\O` [BIO], the “Cytotoxic Normal” value in data set [1] is reported as “No”. Moreover, the “Cytotoxic AML” value in the data set with primary AML specimens is “No”.
`O=C1NC(=O)C(Cc2ccc(OCCN3COc4ccccc4C3=O)cc2)S1` (stereo not drawn) [DRF 2519]: in data set [1], the “Cytotoxic Normal” value is “No”. Also, in the data set on primary AML specimens, the Rapid kinetics entry is listed as “No” and the “Cytotoxic AML” value is on record as “No”.
In the case of `CC(=O)N[C@@H](CS)C(=O)O` [NAC, N-acetyl-cysteine], the “effect of pretreatment on cell death induced by TDZD-8” value in the data set on primary AML specimens (setting [3]) is listed as “completely blocked the cell death response”.
As to `Cn1cc(C2=C(c3ccc(Cl)cc3Cl)C(=O)NC2=O)c2ccccc21` [SB-216763], in data set [1], the “Cytotoxic Normal” value was “No”. In the data set on primary AML specimens, the Rapid kinetics entry is on record as “No” and the “Cytotoxic AML” value was “No”.
As for `Nc1cccc(-c2cc3c(Oc4cccc(O)c4)ncnc3[nH]2)c1` [TWS119], the “Cytotoxic Normal” value in data set [1] was “No”. In addition, in the data set on primary AML specimens, the Rapid kinetics result was “No” and the “Cytotoxic AML” value was “No”.
With `Cc1c(C)c2c(c(C)c1O)CCC(C)(COc1ccc(CC3SC(=O)NC3=O)cc1)O2` (stereo not drawn) [Troglitazone], in data set [1], the “Cytotoxic Normal” value was “Yes”. In addition, in the data set on primary AML specimens, the “Cytotoxic AML” value is recorded as “Yes”.
Take `CC(NC(=O)C(NC(=O)OCc1ccccc1)C(C)C)C(=O)NC(CC(=O)O)C(=O)CF` (stereo not drawn) [Z-VAD] (Cbz-Val-Ala-Asp-CH2F; configuration not given here): in the data set on primary AML specimens (setting [3]), the “abrogation of TDZD-8 induced death by pan-caspase inhibitor” value was “no abrogation of death was observed”.
